Measured values taken from patent publication US9951051B2, “Process for producing alkynylketone derivative” (Shionogi & Co., Ltd., priority 2014, dated 2018).
Where a name gives a salt, the structure may show the parent alone.

Experiment: Solubility test of methanesulfonate of Compound represented by Formula (II″)
Type: physicochemical
Conditions: HPLC method A; for concentration in supernatant solution (solubility): 20 to 25 °C, slurry stirred over two hours; for concentration of crystalline form dissolved into the solution: Conditions in Example 2 (DMSO/NMM/THF/MeCN), 0 °C
Experimental: Crystalline form of methanesulfonate of Compound represented by Formula (II″) and crystalline form of free form of Compound represented by Formula (II″) were suspended in tetrahydrofuran or acetonitrile, respectively. The slurries were stirred at 20° C. to 25° C. for over two hours, and then the concentration in each supernatant solution was measured (HPLC method A). The HPLC results of the concentration in each supernatant solution are indicated as Table 12.
Moreover, the concentration of each crystalline form being dissolved into the solution at 0° C. in Step 1 (Step to obtain the crystalline form of methanesulfonate) and Step 2 (Step to obtain the crystalline form of free form) in Example 2 was measured by HPLC method A and compared (Table 12).

## CC#CC(=O)c1ccc2ncnc(Nc3ccc(OCc4cccc(F)c4)c(Cl)c3)c2c1 [Free form of Formula (II″), 4-(3-chloro-4-(3-fluorobenzyloxy)phenylamino)-6-(1-oxo-2-butyn-1-yl)quinazoline]
Acetonitrile
  concentration in supernatant solution (solubility): 0.3%
  concentration of crystalline form dissolved into the solution: 15.7%
Listed as free form of Compound represented by (II″)
  concentration of crystalline form dissolved into the solution: 15.7%
Tetrahydrofuran
  concentration in supernatant solution (solubility): 3.6%

## CC#CC(=O)c1ccc2ncnc(Nc3ccc(OCc4cccc(F)c4)c(Cl)c3)c2c1 [MsOH salt of Formula (II″)]
Acetonitrile
  concentration in supernatant solution (solubility): 0.05%
  concentration of crystalline form dissolved into the solution: 3.1%
Listed as methanesulfonate of Compound represented by (II″)
  concentration of crystalline form dissolved into the solution: 3.1%
Tetrahydrofuran
  concentration in supernatant solution (solubility): 0.05%
